Test results reported in PubChem BioAssay AID2060503 (Molecular Pharmacology Branch, DTP, NCI, 2025).

Tested on: 817829-284-R-J1-PDC complex spheroids, viability
Assay: Anticancer human tumor 817829-284-R-J1-PDC patient-derived colon adenocarcinoma cell line growth inhibition [GQUAD]
Details: second compound 3.16 µM; first compound 0.0316 µM; hits give low values
Outline: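 Multi-cell-type spheroids of tumor cells with HUVEC and mesenchymal stem cells, treated with drug combinations. Concentrations descend in half-log steps from near clinical Cmax, or from 10 microM where Cmax is unknown; viability read-out.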
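Also: spheroids exposed to agents for 7 days before readout; percent viability relative to DMSO vehicle control taken as 100%.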

With `Cn1ncnc1[C@H]1c2n[nH]c(=O)c3cc(F)cc(c23)N[C@@H]1c1ccc(F)cc1` + CN(C)c1ccc(Nc2c3ccc(NC(=O)CCN4CCCC4)cc3nc3cc(NC(=O)CCN4CCCC4)ccc23)cc1 the viability, T/C was 89.2%.

Same assay, conditions: second compound 3.16 µM; first compound 0.0999 µM; hits give low values

`Cn1ncnc1[C@H]1c2n[nH]c(=O)c3cc(F)cc(c23)N[C@@H]1c1ccc(F)cc1` + CN(C)c1ccc(Nc2c3ccc(NC(=O)CCN4CCCC4)cc3nc3cc(NC(=O)CCN4CCCC4)ccc23)cc1 showed a viability, T/C of 104%.

Same assay, conditions: second compound 3.16 µM; first compound 0.1 µM; hits give low values

Going from `CC(C)n1c(=O)n(C)c2cnc3cc(F)c(-c4ccc(OCCCN5CCCCC5)nc4)cc3c21` + CN(C)c1ccc(Nc2c3ccc(NC(=O)CCN4CCCC4)cc3nc3cc(NC(=O)CCN4CCCC4)ccc23)cc1 to `COc1ccc([C@@H](O)c2cc(-c3ncnc4cc(N5CCOCC5)ccc34)c(F)cc2Cl)nn1` + CN(C)c1ccc(Nc2c3ccc(NC(=O)CCN4CCCC4)cc3nc3cc(NC(=O)CCN4CCCC4)ccc23)cc1, the viability, T/C falls from 105% to 96.3%.

Going from `CC1COCCN1c1cc(-c2ccnn2C)c2ccnc(-c3ccn[nH]3)c2n1` (configuration not stated) + CN(C)c1ccc(Nc2c3ccc(NC(=O)CCN4CCCC4)cc3nc3cc(NC(=O)CCN4CCCC4)ccc23)cc1 to `CC1COCCN1c1cc(C2(S(C)(=N)=O)CC2)nc(-c2ccnc3[nH]ccc23)n1` (configuration not stated) + CN(C)c1ccc(Nc2c3ccc(NC(=O)CCN4CCCC4)cc3nc3cc(NC(=O)CCN4CCCC4)ccc23)cc1, the viability, T/C rises from 16.5% to 94.9%.

In the case of `CC1COCCN1c1cc(C2(O)CC3CCC(C2)O3)c2cnn(-c3ccn[nH]3)c2n1` (configuration not stated) + CN(C)c1ccc(Nc2c3ccc(NC(=O)CCN4CCCC4)cc3nc3cc(NC(=O)CCN4CCCC4)ccc23)cc1, the viability, T/C is reported as 13.8%.

Same assay, conditions: second compound 3.16 µM; first compound 0.316 µM; hits give low values

First: CC(C)n1c(=O)n(C)c2cnc3cc(F)c(-c4ccc(OCCCN5CCCCC5)nc4)cc3c21 + CN(C)c1ccc(Nc2c3ccc(NC(=O)CCN4CCCC4)cc3nc3cc(NC(=O)CCN4CCCC4)ccc23)cc1
Second: COc1ccc([C@@H](O)c2cc(-c3ncnc4cc(N5CCOCC5)ccc34)c(F)cc2Cl)nn1 + CN(C)c1ccc(Nc2c3ccc(NC(=O)CCN4CCCC4)cc3nc3cc(NC(=O)CCN4CCCC4)ccc23)cc1
The viability, T/C of the first is lower: 89.4% for the first, 96.9% for the second.

First: CC1COCCN1c1cc(-c2ccnn2C)c2ccnc(-c3ccn[nH]3)c2n1 (configuration not stated) + CN(C)c1ccc(Nc2c3ccc(NC(=O)CCN4CCCC4)cc3nc3cc(NC(=O)CCN4CCCC4)ccc23)cc1
Second: CC1COCCN1c1cc(C2(S(C)(=N)=O)CC2)nc(-c2ccnc3[nH]ccc23)n1 (configuration not stated) + CN(C)c1ccc(Nc2c3ccc(NC(=O)CCN4CCCC4)cc3nc3cc(NC(=O)CCN4CCCC4)ccc23)cc1
The viability, T/C of the first is lower: 9.69% for the first, 70.1% for the second.

Going from `CC1COCCN1c1cc(C2(O)CC3CCC(C2)O3)c2cnn(-c3ccn[nH]3)c2n1` (configuration not stated) + CN(C)c1ccc(Nc2c3ccc(NC(=O)CCN4CCCC4)cc3nc3cc(NC(=O)CCN4CCCC4)ccc23)cc1 to `Cn1ncnc1[C@H]1c2n[nH]c(=O)c3cc(F)cc(c23)N[C@@H]1c1ccc(F)cc1` + CN(C)c1ccc(Nc2c3ccc(NC(=O)CCN4CCCC4)cc3nc3cc(NC(=O)CCN4CCCC4)ccc23)cc1, the viability, T/C rises from 9.17% to 79.9%.

Same assay, conditions: second compound 3.16 µM; first compound 1 µM; hits give low values

Compared with `CC(C)n1c(=O)n(C)c2cnc3cc(F)c(-c4ccc(OCCCN5CCCCC5)nc4)cc3c21` + CN(C)c1ccc(Nc2c3ccc(NC(=O)CCN4CCCC4)cc3nc3cc(NC(=O)CCN4CCCC4)ccc23)cc1, `COc1ccc([C@@H](O)c2cc(-c3ncnc4cc(N5CCOCC5)ccc34)c(F)cc2Cl)nn1` + CN(C)c1ccc(Nc2c3ccc(NC(=O)CCN4CCCC4)cc3nc3cc(NC(=O)CCN4CCCC4)ccc23)cc1 is higher in viability, T/C: 70.8% for the first, 73.9% for the second.

First: CC1COCCN1c1cc(-c2ccnn2C)c2ccnc(-c3ccn[nH]3)c2n1 (configuration not stated) + CN(C)c1ccc(Nc2c3ccc(NC(=O)CCN4CCCC4)cc3nc3cc(NC(=O)CCN4CCCC4)ccc23)cc1
Second: CC1COCCN1c1cc(C2(S(C)(=N)=O)CC2)nc(-c2ccnc3[nH]ccc23)n1 (configuration not stated) + CN(C)c1ccc(Nc2c3ccc(NC(=O)CCN4CCCC4)cc3nc3cc(NC(=O)CCN4CCCC4)ccc23)cc1
The viability, T/C of the first is lower: 9.19% for the first, 29.9% for the second.

With `CC1COCCN1c1cc(C2(O)CC3CCC(C2)O3)c2cnn(-c3ccn[nH]3)c2n1` (configuration not stated) + CN(C)c1ccc(Nc2c3ccc(NC(=O)CCN4CCCC4)cc3nc3cc(NC(=O)CCN4CCCC4)ccc23)cc1 the viability, T/C was 7.04%.

Same assay, conditions: second compound 3.16 µM; first compound 3.16 µM; hits give low values

Going from `CC(C)n1c(=O)n(C)c2cnc3cc(F)c(-c4ccc(OCCCN5CCCCC5)nc4)cc3c21` + CN(C)c1ccc(Nc2c3ccc(NC(=O)CCN4CCCC4)cc3nc3cc(NC(=O)CCN4CCCC4)ccc23)cc1 to `COc1ccc([C@@H](O)c2cc(-c3ncnc4cc(N5CCOCC5)ccc34)c(F)cc2Cl)nn1` + CN(C)c1ccc(Nc2c3ccc(NC(=O)CCN4CCCC4)cc3nc3cc(NC(=O)CCN4CCCC4)ccc23)cc1, the viability, T/C falls from 61.1% to 50.1%.

Compared with `CC1COCCN1c1cc(-c2ccnn2C)c2ccnc(-c3ccn[nH]3)c2n1` (configuration not stated) + CN(C)c1ccc(Nc2c3ccc(NC(=O)CCN4CCCC4)cc3nc3cc(NC(=O)CCN4CCCC4)ccc23)cc1, `CC1COCCN1c1cc(C2(S(C)(=N)=O)CC2)nc(-c2ccnc3[nH]ccc23)n1` (configuration not stated) + CN(C)c1ccc(Nc2c3ccc(NC(=O)CCN4CCCC4)cc3nc3cc(NC(=O)CCN4CCCC4)ccc23)cc1 is higher in viability, T/C: 7.57% for the first, 13% for the second.

With `CC1COCCN1c1cc(C2(O)CC3CCC(C2)O3)c2cnn(-c3ccn[nH]3)c2n1` (configuration not stated) + CN(C)c1ccc(Nc2c3ccc(NC(=O)CCN4CCCC4)cc3nc3cc(NC(=O)CCN4CCCC4)ccc23)cc1 the viability, T/C was 7.35%.

Same assay, conditions: second compound 3.16 µM; first compound 10 µM; hits give low values

Compared with `CC(C)n1c(=O)n(C)c2cnc3cc(F)c(-c4ccc(OCCCN5CCCCC5)nc4)cc3c21` + CN(C)c1ccc(Nc2c3ccc(NC(=O)CCN4CCCC4)cc3nc3cc(NC(=O)CCN4CCCC4)ccc23)cc1, `COc1ccc([C@@H](O)c2cc(-c3ncnc4cc(N5CCOCC5)ccc34)c(F)cc2Cl)nn1` + CN(C)c1ccc(Nc2c3ccc(NC(=O)CCN4CCCC4)cc3nc3cc(NC(=O)CCN4CCCC4)ccc23)cc1 is lower in viability, T/C: 54.5% for the first, 33.4% for the second.

Going from `CC1COCCN1c1cc(-c2ccnn2C)c2ccnc(-c3ccn[nH]3)c2n1` (configuration not stated) + CN(C)c1ccc(Nc2c3ccc(NC(=O)CCN4CCCC4)cc3nc3cc(NC(=O)CCN4CCCC4)ccc23)cc1 to `CC1COCCN1c1cc(C2(S(C)(=N)=O)CC2)nc(-c2ccnc3[nH]ccc23)n1` (configuration not stated) + CN(C)c1ccc(Nc2c3ccc(NC(=O)CCN4CCCC4)cc3nc3cc(NC(=O)CCN4CCCC4)ccc23)cc1, the viability, T/C rises from 5.75% to 7.64%.

Work on `CC1COCCN1c1cc(C2(O)CC3CCC(C2)O3)c2cnn(-c3ccn[nH]3)c2n1` (configuration not stated) + CN(C)c1ccc(Nc2c3ccc(NC(=O)CCN4CCCC4)cc3nc3cc(NC(=O)CCN4CCCC4)ccc23)cc1 yielded a viability, T/C of 4.31%.

Same assay, conditions: second compound 10 µM; first compound 0.000999 µM; hits give low values

`Cn1ncnc1[C@H]1c2n[nH]c(=O)c3cc(F)cc(c23)N[C@@H]1c1ccc(F)cc1` + CN(C)c1ccc(Nc2c3ccc(NC(=O)CCN4CCCC4)cc3nc3cc(NC(=O)CCN4CCCC4)ccc23)cc1 gave a viability, T/C of 97.2%.

Same assay, conditions: second compound 10 µM; first compound 0.00316 µM; hits give low values

With `Cn1ncnc1[C@H]1c2n[nH]c(=O)c3cc(F)cc(c23)N[C@@H]1c1ccc(F)cc1` + CN(C)c1ccc(Nc2c3ccc(NC(=O)CCN4CCCC4)cc3nc3cc(NC(=O)CCN4CCCC4)ccc23)cc1 the viability, T/C was 97.3%.

Same assay, conditions: second compound 10 µM; first compound 0.00999 µM; hits give low values

In the case of `Cn1ncnc1[C@H]1c2n[nH]c(=O)c3cc(F)cc(c23)N[C@@H]1c1ccc(F)cc1` + CN(C)c1ccc(Nc2c3ccc(NC(=O)CCN4CCCC4)cc3nc3cc(NC(=O)CCN4CCCC4)ccc23)cc1, the viability, T/C is reported as 89.6%.

Same assay, conditions: second compound 10 µM; first compound 0.0316 µM; hits give low values

For `CC(C)n1c(=O)n(C)c2cnc3cc(F)c(-c4ccc(OCCCN5CCCCC5)nc4)cc3c21` + CN(C)c1ccc(Nc2c3ccc(NC(=O)CCN4CCCC4)cc3nc3cc(NC(=O)CCN4CCCC4)ccc23)cc1, the viability, T/C was 72.7%.
